# Experimental data from patent US11357774B2, “Use of a quinoline sulfonyl compound for treatment of inflammation, inflammatory disorders, autoimmune disorders and malaria” (priority 2019, dated 2022).
# Key:
# [1] = system: SW-982 synovial cell line; assay: Sulforhodamine B (SRB) assay, IC50 on SW-982 cells; type: cell-based; settings: Homo sapiens, SW982, 48 h
# Experimental: (§1) The sulforhodamine B (SRB) assay^21 was used to determine the drug concentration that half of the cell growth/viability is inhibited (IC50). Cells were cultured in 96-well plates, with 5,000 cells in 100 μL of culture medium per well. The rest of the protocol was the same as described previously^22,23.
# (§2) Data shown in Table 1 are IC50 values of VR23 and other compounds, which were determined using sulforhodamine B (SRB) assays on immunologically relevant cells (THP-1, SW-982 and PBMC). […] Two well-known proteasome inhibitors, BTZ and CFZ, were included for comparison since VR23 is also a proteasome inhibitor, albeit targeting different subunits^2. The widely used anti-inflammatory DEX was included, also for comparison.
# (§3) THP-1, SW982 and PBMC cells (5,000 cells/well) were treated with each compound for 48 hours. The IC50, the drug concentration reducing cell growth/viability by 50%, was determined by a dose-response four-parameter curve (generated with GraphPad Prism V. 4.02) formed by 10 two-fold dilutions (n=3).
# THP-1 monocytic cells = assay: Sulforhodamine B (SRB) assay, IC50 on THP-1 cells; type: cell-based, human
# Experimental: as §1, §2, §3
# [2] = system: CQ-resistant P. falciparum ItG; assay: Anti-parasitic assay (SYBR Green I), ItG strain; type: cell-based; settings: Plasmodium falciparum, 48 h
# Experimental: The CQ-resistant P. falciparum ItG and the CQ-sensitive 3D7 strains were maintained and assays carried out as described previously^25. Briefly, P. falciparum strains were maintained in RPMI 1640 culture medium supplemented with 10% human serum, 25 mM HEPES, gentamicin, and 50 μM of hypoxanthine. The anti-parasitic assay was carried out as described previously^25. Briefly, a compound gradient was generated across a 96-well assay plate; a constant number of parasites added in 50 μL of the culture medium; allowed to grow for 48 hours; and followed by the measurement of DNA amounts (i.e., fluorescence) using SYBR Green I. The IC50 value is the 50% point between alive and dead for which a three-parameter fit was used.
# VR23 is a derivative of CQ; a well-known anti-malarial drug. […] ItG and […] P. falciparum strains are CQ-resistant and CQ-sensitive strains, respectively. IC50 values were calculated by S.E.M (Table 2).
# [3] = system: IL-1β, TNF-α, IL-6 and IL-8 secretion in THP-1 cells; assay: Cytokine secretion in LPS-stimulated THP-1 cells (ELISA); type: cell-based, human; settings: THP-1, LPS 5 μg/mL, 6 hours
# Experimental: For comparison, BTZ (6 nM), CFZ (1 nM), and DEX (2 μM) were also included. *, **, and *** are p<0.05, p<0.01, and p<0.001, respectively, which denote a significant difference from the LPS-only group. The mean±SEM (n=3) values were determined by a Dunnett's test.
# (§4) The enzyme-linked immunosorbent assay (ELISA) is a quantitative measurement based on sandwich-based enzyme linking, using a protein-specific capture antibody to determine the levels of single or multiple chemokines and cytokines.
# Data shown in FIG. 11 are the results of experiments carried out to investigate VR23's effect on the levels of inflammatory cytokines. […] For comparison, BTZ (6 nM), CFZ (1 nM) and DEX (2 μM) were also included. The levels of cytokine secreted in cell culture supernatants were measured by a single-analyte ELISA. The IC50 value of VR23 is 3 μM and the concentrations of BTZ, CFZ and DEX used are their respective IC50 values.
# [4] = system: IL-6 and TNF-α secretion in human PBMC; assay: IL-6 and TNF-α in PHA-p-stimulated human PBMC (ELISA); type: cell-based; settings: PHA-p 10 μg/mL, 6 hours
# Experimental: The values presented are the mean±SEM (n=2).
# as §4
# Data in FIG. 14 show the levels of IL-6 (upper plot) and TNF-α (lower plot) in human PBMC (1×10^6/mL cells) stimulated with 10 μg/mL phytohemagglutinin-p (PHA-p) (10 μg/mL) for 6 hours, in the absence (control) or presence of varying concentrations of VR23 (0.38, 0.75, 1.5, 3 or 6 μM) or BTZ (6.25, 12.5, 25 or 50 nM). The measurement was carried out with a single-analyte ELISA.
# [5] = system: cancer over non-cancer cells; settings: in vitro studies; cited from earlier work
structure (smiles),measurement,setting,value
"O=[N+]([O-])c1ccc(S(=O)(=O)N2CCN(c3ccnc4cc(Cl)ccc34)CC2)c([N+](=O)[O-])c1 [VR23, 7-chloro-4-(4-(2,4-dinitrophenylsulfonyl)piperazin-1-yl)quinoline]",IC50,[1],4.33 ± 0.7 µM
same,IC50,THP-1 monocytic cells; 48 hours,2.58 ± 0.5 µM
same,IC50,"THP-1 monocytic cells; Homo sapiens, THP-1, 48 h",3 µM
same,IC50,[2],0.117 µM
same,level of IL-6 in response to LPS,[3],especially effective on reducing the level of IL-6
same,"cytokine secretion, dose dependence","[3]; VR23 0.5, 1.0, 2, 3, 4 or 6 μM",decreased cytokine secretion in a dose dependent manner
same,"levels of inflammatory cytokines IL-1β, TNF-α, IL-6, IL-8","[3]; VR23 0.5-6 μM, BTZ 6 nM, CFZ 1 nM, DEX 2 μM",substantial and comparable anti-inflammatory activities
same,PHA-induced IL-6,"[4]; VR23 1.5 μM, BTZ 6 nM",completely prevented
same,PHA-induced TNF-α,"[4]; VR23 3.0 μM, BTZ 4× the IC50 dose",completely prevented
same,"cytokine secretion (IL-6, TNF-α), dose dependence",[4]; VR23 0.38-6 μM,decreases in a dose dependent manner
same,selectivity of cell killing,[5],preferentially kills cancer over non-cancer cells
